What was measured:
[1] = Stability test in buffer (pH 7.4); format: physicochemical; conditions: phosphate buffer/acetonitrile 7:3, 100 mM potassium phosphate buffer (pH 7.4) and acetonitrile 7:3 (v/v), LC/MS; for remaining at 10 min: 10 minutes at 37°C, read-out: Buf. remaining rate (%/10min); for remaining at 1 h: 60 minutes at 37°C, read-out: Buf. remaining rate (%/60min)
Method: In the tables, Buf. remaining rate was determined by stability test in buffer (pH 7.4) as described below. A sample dissolved in DMSO was mixed with a mixed solution of 100 mM potassium phosphate buffer and acetonitrile in the ratio of 7:3 (v/v). The mixture was incubated at 37°C for 0, 10, and 60 minutes, and acetonitrile containing formic acid (final concentration: 0.1%) was added thereto. The solution was centrifuged, and the concentration of the sample (unchanged form) in the supernatant was determined by high performance liquid chromatography/mass spectrometry (LC/MS). Based on the data obtained, Buf. remaining rate (%) was calculated according to the following equation. Buf.remaining rate(%) = amount of sample 0,10, or 60 minutes after incubation/amount of sample at zero time after incubation × 100 [formula]

[2] = Metabolic stability test in liver S9; format: in vitro ADME; conditions: pH 7.4, human liver S9 2 mg protein/mL, LC/MS; for remaining at 10 min: unchanged form after 10 minutes at 37°C, read-out: Remaining rate in human liver S9 (%/10min); for remaining at 1 h: unchanged form after 60 minutes at 37°C, read-out: Remaining rate in human liver S9 (%/60min)
Method: Human liver S9 (final concentration: 2 mg protein/mL), was suspended in 100 mM potassium phosphate buffer (pH 7.4, containing β-nicotinamide adenine dinucleotide phosphate: 1.3 mM, D-glucose-6- phosphate: 3.3 mM, magnesium chloride: 3.3 mM, glucose-6-phosphate dehydrogenase:0.4 U/mL). The suspension was mixed with a solution of a sample dissolved in DMSO. The solution was incubated at 37°C for 0, 10 and 60 minutes, and an acetonitrile containing formic acid (final concentration: 0.1%) was added thereto. The solutions were centrifuged, and the concentration of the sample (unchanged form) in the supernatant was determined by high performance liquid chromatography/mass spectrometry (LC/MS). Based on the data obtained, remaining rate (%) was calculated according to the following equation. Remaining rate(%) = amount of sample 0,10, or 60 minutes after [formula] incubation/amount of sample at zero time after incubation × 100 [formula]
(§1) With respect to the compounds obtained in Working Examples according to the present invention (Compounds 1-1 to 1-115, 2-1, 3-1, 3-2, and 4-1 to 4-4), the results of the remaining rate in human liver S9 and plasma are shown in Tables 28 to 32.

[3] = Metabolic stability test in plasma; format: in vitro ADME, human; conditions: LC/MS; for remaining at 10 min: unchanged form after 10 minutes at 37°C in human plasma, read-out: Remaining rate in human plasma (%/10min); for remaining at 1 h: unchanged form after 60 minutes at 37°C in human plasma, read-out: Remaining rate in human plasma (%/60min)
Method: A sample dissolved in DMSO was added to plasma of human or animal species (mouse and hamster). The solutions were incubated at 37°C for 0, 10 and 60 minutes, and acetonitrile containing formic acid (final concentration: 0.1%) was added thereto. The solutions were centrifuged, and the concentration of the sample (unchanged form) in the supernatant was determined by high performance liquid chromatography/mass spectrometry (LC/MS). Based on the data obtained, the remaining rate (%) was calculated according to the following equation. Remaining rate(%) = amount of sample 0,10, or 60 minutes after incubation/amount of sample at zero time after incubation × 100 [formula]
as §1

SMILES	remaining at 10 min [1]	remaining at 1 h [1]	remaining at 10 min [2]	remaining at 1 h [2]	remaining at 10 min [3]	remaining at 1 h [3]
CN(C)C(=O)c1cc(CCC(=O)Oc2ccccc2)ccc1NC(=O)c1ccccc1-c1ccc(C(F)(F)F)cc1 [Compound 1-1, 3-{3-dimethylcarbamoyl-4-[(4'-trifluoromethylbiphenyl-2-carbonyl)amino]phenyl}propionic acid phenyl ester]	101%	104%	0%	0%	80%	40%
Cc1noc(-c2ccc(OC(=O)CCCc3ccc(NC(=O)c4ccccc4-c4ccc(C(F)(F)F)cc4)c(C(=O)N(C)C)c3)cc2)n1 [Compound 1-2, 4-{3-dimethylcarbamoyl-4-[(4'-trifluoromethylbiphenyl-2-carbonyl)amino]phenyl}butyric acid 4-(3-methyl-[1,2,4]oxadiazol-5-yl)phenyl ester]	98%	97%	0%	0%	20%	0%
CN(C)C(=O)c1cc(CC(=O)Oc2ccccc2)ccc1NC(=O)c1ccccc1-c1ccc(C(F)(F)F)cc1 [Compound 1-3, {3-dimethylcarbamoyl-4-[(4'-trifluoromethylbiphenyl-2-carbonyl)amino]phenyl}acetic acid phenyl ester]	101%	98%	0%	0%	58%	5%
CN(C)C(=O)c1cc(CC(=O)Oc2ccc(F)cc2)ccc1NC(=O)c1ccccc1-c1ccc(C(F)(F)F)cc1 [Compound 1-4, {3-dimethylcarbamoyl-4-[(4'-trifluoromethylbiphenyl-2-carbonyl)amino]phenyl}acetic acid 4-fluorophenyl ester]	99%	95%	0%	0%	57%	5%
COC(=O)c1ccc(OC(=O)CCCc2ccc(NC(=O)c3ccccc3-c3ccc(C(F)(F)F)cc3)c(C(=O)N(C)C)c2)cc1 [Compound 1-5, 4-(4-(3-dimethylcarbamoyl-4-[(4'-trifluoromethylbiphenyl-2-carbonyl)amino]phenyl}butyryloxy)benzoic acid methyl ester]	100%	101%	0%	0%	11%	0%
CCOC(=O)c1ccc(OC(=O)CCCc2ccc(NC(=O)c3ccccc3-c3ccc(C(F)(F)F)cc3)c(C(=O)N(C)C)c2)cc1 [Compound 1-6, 4-(4-{3-dimethylcarbamoyl-4-[(4'-trifluoromethylbiphenyl-2-carbonyl)amino]phenyl}butyryloxy)benzoic acid ethyl ester]	102%	102%	0%	0%	53%	0%
CC(C)OC(=O)c1ccc(OC(=O)CCCc2ccc(NC(=O)c3ccccc3-c3ccc(C(F)(F)F)cc3)c(C(=O)N(C)C)c2)cc1 [Compound 1-7, 4-(4-{3-dimethylcarbamoyl-4-[(4'-trifluoromethylbiphenyl-2-carbonyl)amino]phenyl}butyryloxy)benzoic acid isopropyl ester]	98%	98%	0%	0%	60%	0%
CCCOC(=O)c1ccc(OC(=O)CCCc2ccc(NC(=O)c3ccccc3-c3ccc(C(F)(F)F)cc3)c(C(=O)N(C)C)c2)cc1 [Compound 1-8, 4-(4-{3-dimethylcarbamoyl-4-[(4'-trifluoromethylbiphenyl-2-carbonyl)amino]phenyl}butyryloxy) benzoic acid propyl ester]	99%	98%	0%	0%	71%	12%
COC(=O)c1ccc(OC(=O)CCCc2ccc(NC(=O)c3ccccc3-c3ccc(C(F)(F)F)cc3)c(C(=O)N(C)C)c2)c(F)c1 [Compound 1-10, 4-(4-{3-dimethylcarbamoyl-4-[(4'-trifluoromethylbiphenyl-2-carbonyl)amino]phenyl}butyryloxy)-3-fluoro benzoic acid methyl ester]	101%	98%	0%	0%	0%	0%

Further lines, results first:

remaining at 10 min [1]	remaining at 1 h [1]	remaining at 10 min [2]	remaining at 1 h [2]	remaining at 10 min [3]	remaining at 1 h [3]	SMILES
99%	99%	0%	0%	0%	0%	COC(=O)c1ccc(OC(=O)CCCc2ccc(NC(=O)c3ccccc3-c3ccc(C(F)(F)F)cc3)c(C(=O)N(C)C)c2)c(Cl)c1 [Compound 1-11, 3-chloro-4-(4-{3-dimethylcarbamoyl-4-[(4'-trifluoromethylbiphenyl-2-carbonyl)amino]phenyl}butyryloxy)benzoic acid methyl ester]
100%	103%	0%	0%	10%	0%	COC(=O)c1ccc(OC(=O)CCCc2ccc(NC(=O)c3ccccc3-c3ccc(C(F)(F)F)cc3)c(C(=O)N(C)C)c2)c(OC)c1 [Compound 1-12, 4-(4-{3-dimethylcarbamoyl-4-[(4'-trifluoromethylbiphenyl-2-carbonyl)amino]phenyl}butyryloxy)-3-methoxybenzoic acid methyl ester]
95%	97%	0%	0%	24%	0%	COC(=O)c1ccc(OC(=O)CCCc2ccc(NC(=O)c3ccc(C)nc3-c3ccc(C(F)(F)F)cc3)c(C(=O)N(C)C)c2)cc1 [Compound 1-13, 4-[4-(3-dimethylcarbamoyl-4-{[6-methyl-2-(4-trufluoromethylphenyl)pyridine-3-carbonyl]amino}phenyl)butyryloxy)benzoic acid methyl ester]
101%	104%	2%	0%	43%	0%	COC(=O)c1ccc(OC(=O)CCCc2ccc(NC(=O)c3ccccc3-c3ccc(C(F)(F)F)cc3)c(C(=O)N(C)C)c2)cc1C [Compound 1-14, 4-(4-{3-dimethylcarbamoyl-4-[(4'-trifluoromethylbiphenyl-2-carbonyl)amino]phenyl}butyryloxy)-2-methyl benzoic acid methyl ester]
98%	100%	4%	0%	42%	0%	COC(=O)c1ccc(OC(=O)CCCc2ccc(NC(=O)c3ccccc3-c3ccc(C(F)(F)F)cc3)c(C(=O)N3CCCC3)c2)cc1 [Compound 1-15, 4-(4-{3-(pyrrolidine-1-carbonyl)-4-[(4'-trifluoromethylbiphenyl-2-carbonyl)amino]phenyl}butyryloxy)benzoic acid methyl ester]
